Experimental data: patent publication US7211572B2 (Japan Tobacco Inc., priority 2003, dated 2007)
Where a name gives a salt, the structure may show the parent alone.

target: T1, HIV integrase (Human immunodeficiency virus type 1 group M subtype B, UniProt P12497, F1332H); assay: Determination of enzyme (HIV integrase) inhibitory activity; format: biochemical; settings: recombinant HIV integrase (F185H), strand transfer ELISA, absorbance at 450 nm
T1 construct: HIV integrase full length gene; made in house; host or cells: Escherichia coli BL21(DE3), plasmid pET21a-INH
How it was run: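 Full-length integrase with F185H, expressed in E. coli and purified, was reacted for 60 min at 37 °C with compound and biotinylated donor DNA bound to streptavidin plates. Target DNA was added for 10 min, then anti-digoxigenin-peroxidase detection at A450; IC50 from % inhibition versus enzyme-free blank.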

SMILES	IC50 [nM]
O=C1c2c(O)c(=O)c(-c3nccs3)cn2CCN1Cc1cc(Cl)cc(OCc2ccccc2)c1 [Example 398, 2-(3-benzyloxy-5-chlorobenzyl)-9-hydroxy-7-(thiazol-2-yl)-3,4-dihydro-2H-pyrido[1,2-a]pyrazine-1,8-dione hydrochloride]	10 to 100
O=c1c(-c2ccncn2)cn2ccn(Cc3ccc(Cl)cc3)c(=O)c2c1O [Example 399, 2-(4-chlorobenzyl)-9-hydroxy-7-(pyrimidin-4-yl)-2H-pyrido[1,2-a]pyrazine-1,8-dione hydrochloride]	< 10
O=C(Cc1cccnc1)Nc1cn2ccn(Cc3cccc(Cl)c3)c(=O)c2c(O)c1=O [Example 400, N-[2-(3-chlorobenzyl)-9-hydroxy-1,8-dioxo-1,8-dihydro-2H-pyrido[1,2-a]pyrazin-7-yl]-2-(pyridin-3-yl)acetamide hydrochloride]	< 10
O=C(Cc1ccncc1)Nc1cn2ccn(Cc3cccc(Cl)c3)c(=O)c2c(O)c1=O [Example 401, N-[2-(3-chlorobenzyl)-9-hydroxy-1,8-dioxo-1,8-dihydro-2H-pyrido[1,2-a]pyrazin-7-yl]-2-(pyridin-4-yl)acetamide hydrochloride]	10 to 100
O=C(Cc1ccccn1)Nc1cn2ccn(Cc3cccc(Cl)c3)c(=O)c2c(O)c1=O [Example 402, N-[2-(3-chlorobenzyl)-9-hydroxy-1,8-dioxo-1,8-dihydro-2H-pyrido[1,2-a]pyrazin-7-yl]-2-(pyridin-2-yl)acetamide hydrochloride]	10 to 100
O=c1c(-c2ccncn2)cn2ccn(Cc3cccc(F)c3)c(=O)c2c1O [Example 403, 2-(3-fluorobenzyl)-9-hydroxy-7-(pyrimidin-4-yl)-2H-pyrido[1,2-a]pyrazine-1,8-dione hydrochloride]	10 to 100
O=c1c(-c2cnccn2)cn2ccn(Cc3cccc(F)c3)c(=O)c2c1O [Example 404, 2-(3-fluorobenzyl)-9-hydroxy-7-(pyrazin-2-yl)-2H-pyrido[1,2-a]pyrazine-1,8-dione hydrochloride]	10 to 100
Cn1ncnc1-c1cn2ccn(Cc3ccc(F)c(Cl)c3)c(=O)c2c(O)c1=O [Example 405, 2-(3-chloro-4-fluorobenzyl)-9-hydroxy-7-(2-methyl-2H-1,2,4-triazol-3-yl)-2H-pyrido[1,2-a]pyrazine-1,8-dione hydrochloride]	< 10
CC(C)(C)CC(=O)Nc1cn2c(c(O)c1=O)C(=O)N(Cc1ccc(F)c(Cl)c1)CC2 [Example 406, N-[2-(3-chloro-4-fluorobenzyl)-9-hydroxy-1,8-dioxo-1,3,4,8-tetrahydro-2H-pyrido[1,2-a]pyrazin-7-yl]-3,3-dimethylbutyramide]	10 to 100
Cc1cn(Cc2cccc(F)c2)c(=O)c2c(O)c(=O)c(-c3ccccn3)cn12 [Example 407, 2-(3-fluorobenzyl)-9-hydroxy-4-methyl-7-(pyridin-2-yl)-2H-pyrido[1,2-a]pyrazine-1,8-dione hydrochloride]	10 to 100
Cc1cn(Cc2ccc(F)cc2)c(=O)c2c(O)c(=O)c(C(=O)C(C)(C)C)cn12 [Example 408, 7-(2,2-dimethylpropionyl)-2-(4-fluorobenzyl)-9-hydroxy-4-methyl-2H-pyrido[1,2-a]pyrazine-1,8-dione hydrochloride]	10 to 100
COCc1c(C(=O)C(C)(C)C)c(=O)c(O)c2n1CCN(Cc1ccc(F)cc1)C2=O [Example 409, 7-(2,2-dimethylpropionyl)-2-(4-fluorobenzyl)-9-hydroxy-6-methoxymethyl-3,4-dihydro-2H-pyrido[1,2-a]pyrazine-1,8-dione hydrochloride]	10 to 100
O=C(NCc1ccccn1)c1cn2c(c(O)c1=O)C(=O)N(Cc1ccc(F)cc1)CC2 [Example 410, N-(pyridin-2-ylmethyl)-2-(4-fluorobenzyl)-9-hydroxy-1,8-dioxo-1,3,4,8-tetrahydro-2H-pyrido[1,2-a]pyrazine-7-carboxamide hydrochloride]	10 to 100
O=C(NCc1ccco1)c1cn2c(c(O)c1=O)C(=O)N(Cc1ccc(F)cc1)CC2 [Example 411, N-(furan-2-ylmethyl)-2-(4-fluorobenzyl)-9-hydroxy-1,8-dioxo-1,3,4,8-tetrahydro-2H-pyrido[1,2-a]pyrazine-7-carboxamide hydrochloride]	10 to 100
CC(C)(C)C(=O)c1cn2c(c(O)c1=O)C(=O)N(Cc1ccc(F)cc1)CC2(C)C [Example 412, 7-(2,2-dimethylpropionyl)-2-(4-fluorobenzyl)-9-hydroxy-4,4-dimethyl-3,4-dihydro-2H-pyrido[1,2-a]pyrazine-1,8-dione hydrochloride]	10 to 100
CC1(C)CN(Cc2ccc(F)cc2)C(=O)c2c(O)c(=O)c(Br)cn21 [Example 413, 7-bromo-2-(4-fluorobenzyl)-9-hydroxy-4,4-dimethyl-3,4-dihydro-2H-pyrido[1,2-a]pyrazine-1,8-dione hydrochloride]	100 to 1000

SMILES	IC50 [nM]
CC1(C)CN(Cc2ccc(F)cc2)C(=O)c2c(O)c(=O)c(-c3ccccn3)cn21 [Example 414, 2-(4-fluorobenzyl)-9-hydroxy-4,47dimethyl-7-(pyridin-2-yl)-3,4-dihydro-2H-pyrido[1,2-a]pyrazine-1,8-dione hydrochloride]	100 to 1000
CN(C)c1ccc(CNC(=O)c2cn3c(c(O)c2=O)C(=O)N(Cc2ccc(F)cc2)CC3)cc1 [Example 415, N-(4-dimethylaminobenzyl)-2-(4-fluorobenzyl)-9-hydroxy.-1,8-dioxo-1,3,4,8-tetrahydro-2H-pyrido[1,2-a]pyrazine-7-carboxamide hydrochloride]	10 to 100
O=C1c2c(O)c(=O)c(-c3cnccn3)cn2CCN1Cc1cccc(Cl)c1 [Example 416, 2-(3-chlorobenzyl)-9-hydroxy-7-(pyrazin-2-yl)-3,4-dihydro-2H-pyrido[1,2-a]pyrazine-1,8-dione hydrochloride]	10 to 100
O=C1c2c(O)c(=O)c(-c3cnccn3)cn2CCN1Cc1ccc(F)cc1 [Example 417, 2-(4-fluorobenzyl)-9-hydroxy-7-(pyrazin-2-yl)-3,4-dihydro-2H-pyrido[1,2-a]pyrazine-1,8-dione hydrochloride]	10 to 100
O=C1c2c(O)c(=O)c(NS(=O)(=O)c3ccccc3)cn2CCN1Cc1ccc(F)c(Cl)c1 [Example 418, N-[2-(3-chloro-4-fluorobenzyl)-9-hydroxy-1,8-dioxo-1,3,4,8-tetrahydro-2H-pyrido[1,2-a]pyrazin-7-yl]benzenesulfonamide]	10 to 100
O=C1c2c(O)c(=O)c(NS(=O)(=O)Cc3ccccc3)cn2CCN1Cc1ccc(F)c(Cl)c1 [Example 419, N-[2-(3-chloro-4-fluorobenzyl)-9-hydroxy-1,8-dioxo-1,3,4,8-tetrahydro-2H-pyrido[1,2-a]pyrazin-7-yl]benzylsulfonamide]	< 10
O=C1c2c(O)c(=O)c(NS(=O)(=O)c3cccs3)cn2CCN1Cc1ccc(F)c(Cl)c1 [Example 420, N-[2-(3-chloro-4-fluorobenzyl)-9-hydroxy-1,8-dioxo-1,3,4,8-tetrahydro-2H-pyrido[1,2-a]pyrazin-7-yl]-2-thiophenesulfonamide]	10 to 100
CS(=O)(=O)c1ccc(CNC(=O)c2cn3c(c(O)c2=O)C(=O)N(Cc2ccc(F)cc2)CC3)cc1 [Example 421, N-(4-methanesulfonylbenzyl)-2-(4-fluorobenzyl)-9-hydroxy-1,8-dioxo-1,3,4,8-tetrahydro-2H-pyrido[1,2-a]pyrazine-7-carboxamide hydrochloride]	10 to 100
CC(C)(C)C(O)Cc1cc(=O)c(O)c2n1CCN(Cc1ccc(F)cc1)C2=O (centres unmarked) [Example 422, 2-(4-fluorobenzyl)-9-hydroxy-6-(2-hydroxy-3,3-dimethylbutyl)-3,4-dihydro-2H-pyrido[1,2-a]pyrazine-1,8-dione hydrochloride]	10 to 100
CC(=O)Nc1cn2c(C)cn(Cc3cccc(Cl)c3)c(=O)c2c(O)c1=O [Example 423, N-[2-(3-chlorobenzyl)-9-hydroxy-4-methyl-1,8-dioxo-1,8-dihydro-2H-pyrido[1,2-a]pyrazin-7-yl]acetamide]	10 to 100
COCc1c(-c2ccccn2)c(=O)c(O)c2n1CCN(Cc1ccc(F)cc1)C2=O [Example 424, 2-(4-fluorobenzyl)-9-hydroxy-6-methoxymethyl-7-(pyridin-2-yl)-3,4-dihydro-2H-pyrido[1,2-a]pyrazine-1,8-dione hydrochloride]	10 to 100
COCC(C)(C)C(=O)c1cn2ccn(Cc3ccc(F)cc3)c(=O)c2c(O)c1=O [Example 425, 2-(4-fluorobenzyl)-9-hydroxy-7-(3-methoxy-2,2-dimethylpropionyl)-2H-pyrido[1,2-a]pyrazine-1,8-dione hydrochloride]	< 10
COc1ccnc(CNC(=O)c2cn3c(c(O)c2=O)C(=O)N(Cc2ccc(F)cc2)CC3)n1 [Example 426, N-(4-methoxypyrimidin-2-ylmethyl)-2-(4-fluorobenzyl)-9-hydroxy-1,8-dioxo-1,3,4,8-tetrahydro-2H-pyrido[1,2-a]pyrazine-7-carboxamide hydrochloride]	10 to 100
CC(C)(C)C(=O)Cc1c(C(=O)C(C)(C)C)c(=O)c(O)c2n1CCN(Cc1ccc(F)cc1)C2=O [Example 427, 6-(3,3-dimethyl-2-oxobutyl)-7-(2,2-dimethylpropionyl)-2-(4-fluorobenzyl)-9-hydroxy-3,4-dihydro-2H-pyrido [1,2-a]pyrazine-1,8-dione hydrochloride]	10 to 100
CC(=O)Nc1ccc(CNC(=O)c2cn3c(c(O)c2=O)C(=O)N(Cc2ccc(F)cc2)CC3)cc1 [Example 428, N-(4-acetylaminobenzyl)-2-(4-fluorobenzyl)-9-hydroxy-1,8-dioxo-1,3,4,8-tetrahydro-2H-pyrido[1,2-a]pyrazine-7-carboxamide]	10 to 100
O=c1ccn2c(CCO)cn(Cc3ccc(Cl)c(Cl)c3)c(=O)c2c1O [Example 429, 2-(3,4-dichlorobenzyl)-9-hydroxy-4-(2-hydroxyethyl)-2H-pyrido[1,2-a]pyrazine-1,8-dione hydrochloride]	10 to 100
